According to the NIST ThermoML archive (doi:10.1021/je800110r):

Settings: 303.15 K, Liquid, Vibrating tube method

CCCCCCCCCC [decane]
Settings | mass density [kg/m3]
24341 kPa | 740.5
24369 kPa | 740.3
24389 kPa | 740.3
24417 kPa | 740.4
24444 kPa | 740.4
24484 kPa | 740.5
24509 kPa | 740.4
24577 kPa | 740.5
24654 kPa | 740.6
24804 kPa | 740.6
24833 kPa | 740.7
24870 kPa | 740.7
24908 kPa | 740.7
24929 kPa | 740.7
24962 kPa | 740.7
24995 kPa | 740.8
25025 kPa | 740.7
25050 kPa | 740.7
25648 kPa | 741.1
25678 kPa | 741.3
25713 kPa | 741.2
25744 kPa | 741.3
25771 kPa | 741.3
25839 kPa | 741.3
25875 kPa | 741.2
25902 kPa | 741.4
25935 kPa | 741.4
25959 kPa | 741.5
26009 kPa | 741.4
26041 kPa | 741.5
26073 kPa | 741.5
26100 kPa | 741.5
26137 kPa | 741.5
26164 kPa | 741.5
26206 kPa | 741.5
26242 kPa | 741.5
26270 kPa | 741.6
26309 kPa | 741.6
26334 kPa | 741.6
26357 kPa | 741.7
26400 kPa | 741.7
26433 kPa | 741.8
26465 kPa | 741.7
26494 kPa | 741.7
26532 kPa | 741.8
26574 kPa | 741.8
26607 kPa | 741.9
26640 kPa | 741.8
26684 kPa | 741.9
26718 kPa | 741.8
26752 kPa | 741.9
26781 kPa | 741.9
26820 kPa | 741.9
26844 kPa | 741.9
26884 kPa | 741.9
26923 kPa | 742
26947 kPa | 742
26982 kPa | 742.1
27007 kPa | 742
27037 kPa | 742.2
27071 kPa | 742.1
27116 kPa | 742.2
27156 kPa | 742.2
27186 kPa | 742.1
27226 kPa | 742.2
27262 kPa | 742.2
27298 kPa | 742.3
27333 kPa | 742.3
27375 kPa | 742.4
27400 kPa | 742.4
27431 kPa | 742.3
27462 kPa | 742.4
27503 kPa | 742.3
27535 kPa | 742.4
27585 kPa | 742.4
27622 kPa | 742.4
27666 kPa | 742.4
27697 kPa | 742.5
27724 kPa | 742.6
27748 kPa | 742.5
27771 kPa | 742.6
27803 kPa | 742.5
27827 kPa | 742.7
27859 kPa | 742.6
27890 kPa | 742.6
27923 kPa | 742.8
27952 kPa | 742.6
27975 kPa | 742.7
27999 kPa | 742.8
28032 kPa | 742.7
28057 kPa | 742.8
28085 kPa | 742.7
28118 kPa | 742.9
28151 kPa | 742.8
28180 kPa | 742.9
28205 kPa | 742.8
28234 kPa | 742.9
28258 kPa | 742.9
28289 kPa | 742.9
28314 kPa | 742.9
28343 kPa | 743
28369 kPa | 743
28399 kPa | 743.1
28443 kPa | 743
28470 kPa | 743.1
28511 kPa | 743.2
28542 kPa | 743.1
28562 kPa | 743.1
28584 kPa | 743.2
28605 kPa | 743.1
28622 kPa | 743.2
28643 kPa | 743.1
28666 kPa | 743.1
28685 kPa | 743.3
28705 kPa | 743.2
28725 kPa | 743.2
28754 kPa | 743.3
28771 kPa | 743.3
28791 kPa | 743.3
28809 kPa | 743.2
28826 kPa | 743.2
28844 kPa | 743.4
28865 kPa | 743.2
28885 kPa | 743.3
28902 kPa | 743.2
28928 kPa | 743.4
28945 kPa | 743.3
28966 kPa | 743.4
28986 kPa | 743.4
29000 kPa | 743.5
29018 kPa | 743.4
29042 kPa | 743.4
29062 kPa | 743.4
29083 kPa | 743.4
29107 kPa | 743.4
29131 kPa | 743.5
29154 kPa | 743.4
